According to patent US20080221086A1, “Novel Inhibitors of Glutaminyl Cyclase” (PROBIODRUG AG, priority 2006, published 2008):
Where two headings read alike, the source gives them in different places.

Target: hQC (Homo sapiens, UniProt Q16769)
Assay: Fluorometric assay of glutaminyl cyclase (QC) inhibition, H-Gln-βNA or H-Gln-AMC substrate
Assay type: biochemical
Method in brief: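 Ki values were obtained by fitting progress curves to a competitive-inhibition equation, and the rapid screen used 4 mM inhibitor with substrate at 1 KM. Both readouts coupled pyroglutamyl aminopeptidase at pH 8.0 and 30° C: H-Gln-βNA at 0.2 mM (ex/em 320/410 nm) or H-Gln-AMC (380/460 nm).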

[1] = compound from preparative synthesis, purified by chromatography, fluorescent assay, read-out: IC50 hQC

Chain of hQC (Q16769 29-361): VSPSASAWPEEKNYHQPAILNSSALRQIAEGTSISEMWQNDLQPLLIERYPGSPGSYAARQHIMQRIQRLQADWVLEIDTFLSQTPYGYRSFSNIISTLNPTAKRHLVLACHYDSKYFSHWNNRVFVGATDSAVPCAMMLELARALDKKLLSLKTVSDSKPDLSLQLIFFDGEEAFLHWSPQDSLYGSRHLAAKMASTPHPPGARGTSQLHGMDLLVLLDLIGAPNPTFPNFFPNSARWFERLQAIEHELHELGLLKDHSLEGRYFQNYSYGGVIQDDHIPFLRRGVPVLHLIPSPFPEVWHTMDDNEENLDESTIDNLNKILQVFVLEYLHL

Structure (SMILES): CC(CC1/C(=N/C2CCCCCC2)NC(=O)N1c1ccc2nc[nH]c2c1)CC(C)(C)C (stereo not drawn) [Compound 130, 1-(3H-Benzoimidazol-5-yl)-4-cycloheptylimino-5-(2,4,4-trimethyl-pentyl)-imidazolidin-2-one]
- IC50 (read-out: IC50): 7.6 µM

Structure (SMILES): S=C1N/C(=N/CCCc2ccccc2)C(c2cc(Br)cc(Br)c2)N1c1ccc2[nH]cnc2c1 (stereo not drawn) [Compound 131, 1-(1H-Benzoimidazol-5-yl)-5-(3,5-dibromo-phenyl)-4-3-phenyl-propylimno-imidazolidine-2-thione]
- IC50 (read-out: IC50): 5.8 µM

Structure (SMILES): S=C1N/C(=N/Cc2ccc3[nH]ccc3c2)C(c2cc(Br)cc(Br)c2)N1c1ccc2nc[nH]c2c1 (stereo not drawn) [Compound 132, 1-(3H-Benzoimidazol-5-yl)-5-(3,5-dibromo-phenyl)-4-1H-indol-5-ylmethylimino-imidazolidine-2-thione]
- IC50 (read-out: IC50): 4.9 µM

Structure (SMILES): S=C1N/C(=N/Cc2ccccc2)C(c2ccc(Br)cc2)N1c1ccc2[nH]cnc2c1 (stereo not drawn) [Compound 133, 1-(1H-Benzoimidazol-5-yl)-4-benzylimino-5-(4-bromo-phenyl)-imidazolidine-2-thione]
- IC50 (read-out: IC50): 5.8 µM

Structure (SMILES): O=C(C/N=C1\NC(=S)N(c2ccc3[nH]cnc3c2)C1c1c(F)ccc(Cl)c1F)N1CCCC(O)C1 (stereo not drawn) [Compound 134, 2-(1-(1H-benzo[d]imidazol-5-yl)-5-(3-chloro-2,6-difluorophenyl)-2-thioxoimidazolidin-4-ylideneamino)-1-(3-hydroxypiperidin-1-yl)ethanone]
- IC50 (read-out: IC50): 2.2 µM

Structure (SMILES): O=C(C/N=C1\NC(=O)N(c2ccc3[nH]cnc3c2)C1c1ccccc1Cl)N1CCSCC1 (stereo not drawn) [Compound 135, 1-(1H-Benzoimidazol-5-yl)-5-(2-chloro-phenyl)-4-2-oxo-2-thiomorpholin-4-yl-ethylimino-imidazolidin-2-one]
- IC50 (read-out: IC50): 5.8 µM

Structure (SMILES): CCc1ccccc1C1/C(=N/C2CCCc3ccccc32)NC(=S)N1c1ccc2[nH]cnc2c1 (stereo not drawn) [Compound 136, 1-(1H-Benzoimidazol-5-yl)-5-(2-ethyl-phenyl)-4-1,2,3,4-tetrahydro-naphthalen-1-yliminoimidazolidine-2-thione]
- IC50 (read-out: IC50): 6.7 µM

Structure (SMILES): S=C1NC(=NCCc2cccs2)C(c2cc3c(cc2Br)OCO3)N1c1ccc2nc[nH]c2c1 (stereo not drawn) [Compound 137, 1-(3H-Benzoimidazol-5-yl)-5-(6-bromo-benzo1,3dioxol-5-yl)-4-2-thiophen-2-yl-ethylimino-imidazolidin-2-thione]
- IC50 (read-out: IC50): 4 µM

Structure (SMILES): CC(/N=C1\NC(=O)N(c2ccc3[nH]cnc3c2)C1c1ccccc1C(F)(F)F)C(C)(C)C (stereo not drawn) [Compound 138, 1-(1H-Benzoimidazol-5-yl)-5-(2-trifluoromethyl-phenyl)-4-1,2,2-trimethyl-propylimino-imidazolidin-2-one]
- IC50 [1]: 1.23 µM
- IC50 (read-out: IC50): 0.004 µM

Structure (SMILES): S=C1N/C(=N\C(Cc2ccccc2)c2ccccc2)C(c2cc3c(cc2Br)OCO3)N1c1ccc2[nH]cnc2c1 (stereo not drawn) [Compound 139, 1-(1H-Benzoimidazol-5-yl)-5-(6-bromo-benzo1,3dioxol-5-yl)-4-1,2-diphenyl-ethylimino-imidazolidine-2-thione]
- IC50 (read-out: IC50): 9.4 µM

Structure (SMILES): Cc1ccc(C2/C(=N\c3cccc(C#N)c3)NC(=S)N2c2ccc3[nH]cnc3c2)c(C)c1 (stereo not drawn) [Compound 140, 3-(1-(1H-benzo[d]imidazol-5-yl)-5-(2,4-dimethylphenyl)-2-thioxoimidazolidin-4-ylideneamino)benzo-nitrile]
- IC50 (read-out: IC50): 8.5 µM

Structure (SMILES): C/N=C1/NC(=S)N(c2ccc3[nH]cnc3c2)C1c1ccc(C)cc1 (stereo not drawn) [Compound 141, 1-(1H-Benzoimidazol-5-yl)-4-methylimino-5-p-tolyl-imidazolidine-2-thione]
- IC50 (read-out: IC50): 9.4 µM

Structure (SMILES): Cc1nc[nH]c1C1/C(=N/C2CCCCC2O)NC(=O)N1c1ccc2[nH]cnc2c1 (stereo not drawn) [Compound 142, 3-(1H-Benzoimidazol-5-yl)-5-2-hydroxy-cyclohexylimino-5′-methyl-1,3,4,5-tetrahydro-3′H-4,4′biimidazolyl-2-one]
- IC50 (read-out: IC50): 8.5 µM

Structure (SMILES): O=C(C/N=C1\NC(=S)N(c2ccc3[nH]cnc3c2)C1c1cc2c(cc1Br)OCO2)NN1CCCCC1 (stereo not drawn) [Compound 143]
- IC50 (read-out: IC50): 2.2 µM

Structure (SMILES): O=C(C/N=C1\NC(=S)N(c2ccc3[nH]cnc3c2)C1c1ccccc1C(F)(F)F)N1CCCCC1 (stereo not drawn) [Compound 144, 2-1-(1H-Benzoimidazol-5-yl)-2-thioxo-5-(2-trifluoromethyl-phenyl)-imidazolidin-(4Z)-ylideneamino-1-piperidin-1-yl-ethanone]
- IC50 (read-out: IC50): 1.3 µM

Structure (SMILES): Cc1ccc(C2/C(=N\Cc3ccc4[nH]ccc4c3)NC(=S)N2c2ccc3[nH]cnc3c2)cc1 (stereo not drawn) [Compound 145, 1-(1H-Benzoimidazol-5-yl)-4-1H-indol-5-ylmethylimino-5-p-tolyl-imidazolidine-2-thione]
- IC50 (read-out: IC50): 4 µM

Structure (SMILES): S=C1N/C(=N\C2CCc3ccccc32)C(c2ccc(Br)cc2)N1c1ccc2[nH]cnc2c1 (stereo not drawn) [Compound 146, 1-(1H-Benzoimidazol-5-yl)-5-(4-bromo-phenyl)-4-indan-1-ylimino-imidazolidine-2-thione]
- IC50 (read-out: IC50): 1.3 µM

Structure (SMILES): O=C1CCCN1CCC/N=C1\NC(=S)N(c2ccc3[nH]cnc3c2)C1c1ccc(Br)cc1 (stereo not drawn) [Compound 147, 1-{3-1-(3H-Benzoimidazol-5-yl)-5-(4-bromo-phenyl)-2-thioxo-imidazolidin-(4Z)-ylideneamino-propyl}-pyrrolidin-2-one]
- IC50 (read-out: IC50): 5.8 µM

Structure (SMILES): O=C1N/C(=N/Cn2nnc3ccccc32)C(c2cc(F)cc(F)c2)N1c1ccc2[nH]cnc2c1 (stereo not drawn) [Compound 148, 1-(1H-Benzoimidazol-5-yl)-4-benzotriazol-1-ylmethylimino-5-(3,5-difluoro-phenyl)-imidazolidin-2-one]
- IC50 (read-out: IC50): 3.1 µM

Structure (SMILES): FC(F)(F)c1ccccc1/N=C1\NC(=S)N(c2ccc3[nH]cnc3c2)C1C1=CCCCC1 (stereo not drawn) [Compound 149, 1-(1H-Benzoimidazol-5-yl)-5-cyclohex-1-enyl-4-2-trifluoromethyl-phenylimino-imidazolidine-2-thione]
- IC50 (read-out: IC50): 6.7 µM

Structure (SMILES): CC(CC1/C(=N/C2CCCc3ccccc32)NC(=S)N1c1ccc2[nH]cnc2c1)CC(C)(C)C (stereo not drawn) [Compound 150, 1-(1H-Benzoimidazol-5-yl)-4-1,2,3,4-tetrahydro-naphthalen-1-ylimino-5-(2,4,4-trimethyl-pentyl)-imidazolidine-2-thione]
- IC50 (read-out: IC50): 6.7 µM

Structure (SMILES): CSc1ccc(C2/C(=N\Cn3nnc4ccccc43)NC(=S)N2c2ccc3[nH]cnc3c2)cc1 (stereo not drawn) [Compound 151, 1-(1H-Benzoimidazol-5-yl)-4-benzotriazol-1-ylmethylimino-5-(4-methylsulfanyl-phenyl)-imidazolidine-2-thione]
- IC50 (read-out: IC50): 0.004 µM

Structure (SMILES): O=C(C/N=C1\C(c2cccc(Br)c2)NC(=S)N1c1ccc2[nH]cnc2c1)N1CCSCC1 (stereo not drawn) [Compound 152, 2-(3-(1H-benzo[d]imidazol-5-yl)-5-(3-bromophenyl)-2-thioxoimidazolidin-4-ylideneamino)-1-thiomorpholinoetha-none]
- IC50 (read-out: IC50): 2.2 µM

Structure (SMILES): O=C1NC(c2cc(F)cc(F)c2)/C(=N\CC(O)c2ccccc2)N1c1ccc2[nH]cnc2c1 (stereo not drawn) [Compound 153, 1-(1H-Benzoimidazol-5-yl)-5-(3,5-difluoro-phenyl)-4-2-hydroxy-2-phenyl-ethylimino-imidazolidin-2-one]
- IC50 (read-out: IC50): 0.4 µM

Structure (SMILES): O=C(C/N=C1\NC(=O)N(c2ccc3[nH]cnc3c2)C1c1c(F)ccc(Cl)c1F)N1CCCC(O)C1 (stereo not drawn) [Compound 154, 1-(1H-Benzoimidazol-5-yl)-5-(3-chloro-2,6-difluoro-phenyl)-4-2-(3-hydroxy-piperidin-1-yl)-2-oxo-ethylimino-imidazolidin-2-one]
- IC50 (read-out: IC50): 0.4 µM

Structure (SMILES): O=C1CCCN1CCC/N=C1/NC(=O)N(c2ccc3[nH]cnc3c2)C1c1ccc2nsnc2c1 (stereo not drawn) [Compound 155, 1-(1H-Benzoimidazol-5-yl)-5-benzo[c][1,2,5]thiadiazol-5-yl-4-3-(2-oxo-pyrrolidin-1-yl)-propylimino-imidazolidin-2-one]
- IC50 (read-out: IC50): 0.004 µM

Structure (SMILES): Cc1ccc(C2/C(=N/C(C)C)NC(=O)N2c2ccc3[nH]cnc3c2)c(C)c1 (stereo not drawn) [Compound 156, 1-(1H-Benzoimidazol-5-yl)-5-(2,4-dimethyl-phenyl)-4-isopropylimino-imidazolidin-2-one]
- IC50 (read-out: IC50): 0.4 µM

Structure (SMILES): CN(C)CCCN=C1NC(=O)N(c2ccc3[nH]cnc3c2)C1c1ccc2ccccc2c1 (stereo not drawn) [Compound 157, 1-(1H-Benzoimidazol-5-yl)-4-3-dimethylamino-propylimino-5-naphthalen-2-yl-imidazolidin-2-one]
- IC50 (read-out: IC50): 5.8 µM

Structure (SMILES): O=C1N/C(=N\C2CC2)C(c2ccccc2C(F)(F)F)N1c1ccc2[nH]cnc2c1 (stereo not drawn) [Compound 158, 1-(1H-Benzoimidazol-5-yl)-4-cyclopropylimino-5-(2-trifluoromethyl-phenyl)-imidazolidin-2-one]
- IC50 (read-out: IC50): 4.9 µM

Structure (SMILES): C/N=C1/NC(=O)N(c2ccc3[nH]cnc3c2)C1c1ccc2ccccc2c1 (stereo not drawn) [Compound 159, 1-(1H-Benzoimidazol-5-yl)-4-methylimino-5-naphthalen-2-yl-imidazolidin-2-one]
- IC50 (read-out: IC50): 0.004 µM

Structure (SMILES): CCc1ccccc1C1/C(=N/C2CCCc3ccccc32)NC(=O)N1c1ccc2[nH]cnc2c1 (stereo not drawn) [Compound 160, 1-(1H-Benzoimidazol-5-yl)-5-(2-ethyl-phenyl)-4-1,2,3,4-tetrahydro-naphthalen-1-ylimino-imidazolidin-2-one]
- IC50 (read-out: IC50): 2.2 µM

Structure (SMILES): S=C1N/C(=N\C2CCCc3ccccc32)C(c2cccc(Br)c2)N1c1ccc2[nH]cnc2c1 (stereo not drawn) [Compound 161, 1-(1H-Benzoimidazol-5-yl)-5-(3-bromo-phenyl)-4-1,2,3,4-tetrahydro-naphthalen-1-ylimino-imidazolidine-2-thione]
- IC50 (read-out: IC50): 5.8 µM

Structure (SMILES): O=C1N/C(=N/Cc2ccccc2)C(c2ccc(Cl)cc2)N1c1ccc2[nH]cnc2c1 (stereo not drawn) [Compound 162, 1-(1H-Benzoimidazol-5-yl)-4-benzylimino-5-(4-chloro-phenyl)-imidazolidin-2-one]
- IC50 [1]: 0.0195 µM
- IC50 (read-out: IC50): 0.004 µM

Structure (SMILES): O=C1N/C(=N/CCCN2CCOCC2)C(c2ccc3[nH]ccc3c2)N1c1ccc2[nH]cnc2c1 (stereo not drawn) [Compound 163, 1-(1H-Benzoimidazol-5-yl)-5-(1H-indol-5-yl)-4-3-morpholin-4-yl-propylimino-imidazolidin-2-one]
- IC50 (read-out: IC50): 0.004 µM
